In ChEMBL document CHEMBL5223132, “Structure-activity relationships of mixed σ1R/σ2R ligands with antiproliferative and anticancer effects” (Bioorg Med Chem, 2022):

Assays:
[1] = system: PC-3; test: Antiproliferative activity against human PC-3 cells assessed as reduction in cell viability incubated for 48 hrs by MTT assay; assay type: functional, cell-based; conditions: PC-3, 48 h
[2] = system: SK-N-SH; test: Antiproliferative activity against human SK-N-SH cells assessed as reduction in cell viability incubated for 48 hrs by MTT assay; assay type: functional, cell-based
[3] = biological target: T1, Sigma intracellular receptor 2 (Rattus norvegicus, UniProt Q5U3Y7); test: Displacement of [3H]DTG from sigma 2 receptor expressed in rat liver membranes assessed as inhibition constant in presence of (+)-pentazocine by radioligand binding assay; assay type: cell membranes, Membrane
T1 sequence (Q5U3Y7 whole entry): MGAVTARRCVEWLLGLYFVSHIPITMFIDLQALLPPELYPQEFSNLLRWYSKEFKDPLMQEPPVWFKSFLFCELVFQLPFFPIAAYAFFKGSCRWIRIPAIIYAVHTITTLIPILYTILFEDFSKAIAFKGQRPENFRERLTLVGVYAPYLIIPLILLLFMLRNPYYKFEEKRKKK

[4] = biological target: T2, Sigma non-opioid intracellular receptor 1 (Cavia porcellus, UniProt Q60492); test: Displacement of [3H]pentazocine from sigma 1 receptor expressed in guinea pig brain membranes assessed as inhibition constant by radioligand binding assay; assay type: cell membranes, Membrane
[5] = biological target: ATP-dependent translocase ABCB1 (Homo sapiens, UniProt P08183); test: Inhibition of P-gp transporter (unknown origin) expressed in dog MDCK-MDR1 assessed as inhibition of fluorescent Calcein-AM transport by fluorescence based assay; assay type: cell-based
[6] = biological target: T3, Sigma intracellular receptor 2 (Homo sapiens, UniProt Q5BJF2); test: Binding affinity to human sigma 2 receptor
[7] = biological target: T4, Sigma non-opioid intracellular receptor 1 (Homo sapiens, UniProt Q99720); test: Binding affinity to sigma 1 receptor (unknown origin)
[8] = biological target: T3, Sigma intracellular receptor 2; test: Binding affinity to sigma 2 receptor (unknown origin)
[9] = system: MCF7; test: Antiproliferative activity against human MCF7 cells assessed as reduction in cell viability; assay type: functional, cell-based
[10] = biological target: T1, Sigma intracellular receptor 2; test: Binding affinity to sigma 2 receptor expressed in rat liver; assay type: tissue-based
[11] = system: 5637; test: Antiproliferative activity against human 5637 cells assessed as reduction in cell viability; assay type: functional, cell-based
[12] = biological target: T3, Sigma intracellular receptor 2; test: Binding affinity to sigma 2 receptor (unknown origin) expressed in human RT-4 cells; assay type: cell-based
[13] = system: A-427; test: Antiproliferative activity against human A-427 cells assessed as reduction in cell viability; assay type: functional, cell-based
[14] = biological target: T3, Sigma intracellular receptor 2; test: Displacement of [H3]DTG from sigma 2 receptor (unknown origin) by competition binding assay
[15] = biological target: T4, Sigma non-opioid intracellular receptor 1; test: Binding affinity to human sigma 1 receptor
[16] = biological target: T1, Sigma intracellular receptor 2; test: Displacement of [3H]DTG from sigma 2 receptor expressed in rat liver membranes assessed as inhibition constant incubated for 120 mins in presence of (+)-SKF10047 by radioligand binding assay; assay type: cell membranes, Membrane
[17] = system: SK-MEL-28; test: Anti-proliferative against human SK-MEL-28 cells assessed as reduction in cell viability incubated for 24 hrs by MTT assay; assay type: functional, cell-based; conditions: SK-MEL-28, 24 h
[18] = system: SK-MEL-28; test: Anti-proliferative against human SK-MEL-28 cells assessed as reduction in cell viability incubated for 48 hrs by MTT assay; assay type: functional, cell-based; conditions: SK-MEL-28, 48 h
[19] = biological target: T2, Sigma non-opioid intracellular receptor 1; test: Displacement of [3H]pentazocine from sigma 1 receptor expressed in guinea pig brain membranes assessed as inhibition constant incubated for 150 mins by radioligand binding assay; assay type: cell membranes, Membrane
[20] = system: MDA-MB-231; test: Anti-migratory activity against human MDA-MB-231 cells assessed as reduction in cell migration at 10 uM and measured after 12 hrs by wound healing assay; assay type: functional; set-up: scale not given: the % may be the effect or the level left
[21] = system: MDA-MB-231; test: Anti-invasive activity against human MDA-MB-231 cells assessed as decrease in cell invasion at 10 uM incubated for 24 hrs by 3D spheroid invasion assay; assay type: functional; set-up: scale not given: the % may be the effect or the level left
[22] = biological target: T4, Sigma non-opioid intracellular receptor 1; test: Displacement of [H3]DTG from sigma 1 receptor (unknown origin) by competition binding assay
[23] = Binding affinity to human sigma 1 receptor
[24] = Anti-proliferative against human U-87 MG cells assessed as reduction in cell viability incubated for 72 hrs by MTT assay; assay type: functional, cell-based, U-87MG ATCC
[25] = Anti-proliferative against human U-87 MG cells assessed as reduction in cell viability incubated for 48 hrs by MTT assay; assay type: functional, cell-based, U-87MG ATCC
[26] = Anti-proliferative against human U-87 MG cells assessed as reduction in cell viability incubated for 24 hrs by MTT assay; assay type: functional, cell-based, U-87MG ATCC
[27] = system: MDCK-MDR1; test: Anticancer against dog MDCK-MDR1 cells assessed as reduction in cell viability at 50 uM incubated for 48 hrs in presence of doxorubicin by MTT assay; assay type: functional, Canis lupus familiaris
[28] = system: MDCK-MDR1; test: Anticancer against dog MDCK-MDR1 cells assessed as reduction in cell viability at 50 uM incubated for 48 hrs by MTT assay; assay type: functional, Canis lupus familiaris
[29] = system: MDCK-MDR1; test: Anticancer against dog MDCK-MDR1 cells assessed as reduction in cell viability at 30 uM incubated for 48 hrs in presence of doxorubicin by MTT assay; assay type: functional, Canis lupus familiaris
[30] = biological target: T2, Sigma non-opioid intracellular receptor 1; test: Binding affinity to sigma 1 receptor expressed in guinea pig brain; assay type: tissue-based
[31] = system: RPMI-8226; test: Antiproliferative activity against human RPMI-8226 cells assessed as reduction in cell viability; assay type: functional, cell-based
[32] = biological target: T4, Sigma non-opioid intracellular receptor 1; test: Binding affinity to sigma 1 receptor (unknown origin) expressed in human RPMI-8226 cells; assay type: cell-based
[33] = system: RPMI-8226; test: Anti-proliferative against human RPMI-8226 cells assessed as reduction in cell viability at 40 uM incubated for 24 hrs by MTT assay; assay type: functional
[34] = Anti-proliferative against human U-87 MG cells assessed as reduction in cell viability at 40 uM incubated for 24 hrs by MTT assay; assay type: functional, U-87MG ATCC
[35] = system: RPMI-8226; test: Induction of apoptosis in human RPMI-8226 cells assessed as total apoptotic cells incubated for 48 hrs by annexin-V/propidium iodide staining based flow cytometry; assay type: functional
[36] = system: MCF7; test: Antiproliferative activity against human MCF7 cells assessed as reduction in cell proliferation at 100 uM incubated for 48 hrs by MTT assay; assay type: functional; set-up: scale not given: the % may be the effect or the level left
[37] = biological target: D(2) dopamine receptor (Homo sapiens, UniProt P14416); test: Binding affinity to D2R receptor (unknown origin)
[38] = biological target: T5, 5-hydroxytryptamine receptor 1A (Homo sapiens, UniProt P08908); test: Binding affinity to 5-HT1A receptor (unknown origin) by […]
T5 sequence (P08908 whole entry): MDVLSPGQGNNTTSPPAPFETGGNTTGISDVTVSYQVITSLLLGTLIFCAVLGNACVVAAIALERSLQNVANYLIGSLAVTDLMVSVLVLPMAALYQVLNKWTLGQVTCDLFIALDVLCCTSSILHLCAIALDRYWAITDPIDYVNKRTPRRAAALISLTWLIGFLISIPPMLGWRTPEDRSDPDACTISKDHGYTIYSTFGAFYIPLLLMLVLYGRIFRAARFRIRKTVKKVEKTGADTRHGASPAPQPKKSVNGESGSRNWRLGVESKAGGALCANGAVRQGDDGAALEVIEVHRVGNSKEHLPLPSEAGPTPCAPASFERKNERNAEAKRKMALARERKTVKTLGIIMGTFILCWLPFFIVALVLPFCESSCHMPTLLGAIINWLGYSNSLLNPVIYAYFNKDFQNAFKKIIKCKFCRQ

T4 sequence (Q99720 whole entry): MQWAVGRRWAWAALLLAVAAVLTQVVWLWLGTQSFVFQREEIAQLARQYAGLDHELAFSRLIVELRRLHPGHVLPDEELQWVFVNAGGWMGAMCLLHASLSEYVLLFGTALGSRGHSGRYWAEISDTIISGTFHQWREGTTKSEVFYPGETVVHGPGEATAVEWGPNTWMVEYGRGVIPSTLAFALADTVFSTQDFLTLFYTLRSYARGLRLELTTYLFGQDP
T3 sequence (Q5BJF2 whole entry): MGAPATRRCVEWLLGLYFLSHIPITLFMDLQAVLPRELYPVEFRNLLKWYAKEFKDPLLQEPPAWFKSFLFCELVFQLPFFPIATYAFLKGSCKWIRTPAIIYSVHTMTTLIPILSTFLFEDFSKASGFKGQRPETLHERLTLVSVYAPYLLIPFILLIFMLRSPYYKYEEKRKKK
T2 sequence (Q60492 whole entry): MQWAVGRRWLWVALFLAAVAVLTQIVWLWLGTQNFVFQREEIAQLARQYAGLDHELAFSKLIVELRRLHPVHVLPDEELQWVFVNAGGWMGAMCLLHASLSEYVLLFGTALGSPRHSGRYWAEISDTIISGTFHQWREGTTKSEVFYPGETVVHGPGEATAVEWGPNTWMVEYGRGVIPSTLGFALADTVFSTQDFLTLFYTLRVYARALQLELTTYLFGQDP
Chain of ATP-dependent translocase ABCB1 (P08183 whole entry): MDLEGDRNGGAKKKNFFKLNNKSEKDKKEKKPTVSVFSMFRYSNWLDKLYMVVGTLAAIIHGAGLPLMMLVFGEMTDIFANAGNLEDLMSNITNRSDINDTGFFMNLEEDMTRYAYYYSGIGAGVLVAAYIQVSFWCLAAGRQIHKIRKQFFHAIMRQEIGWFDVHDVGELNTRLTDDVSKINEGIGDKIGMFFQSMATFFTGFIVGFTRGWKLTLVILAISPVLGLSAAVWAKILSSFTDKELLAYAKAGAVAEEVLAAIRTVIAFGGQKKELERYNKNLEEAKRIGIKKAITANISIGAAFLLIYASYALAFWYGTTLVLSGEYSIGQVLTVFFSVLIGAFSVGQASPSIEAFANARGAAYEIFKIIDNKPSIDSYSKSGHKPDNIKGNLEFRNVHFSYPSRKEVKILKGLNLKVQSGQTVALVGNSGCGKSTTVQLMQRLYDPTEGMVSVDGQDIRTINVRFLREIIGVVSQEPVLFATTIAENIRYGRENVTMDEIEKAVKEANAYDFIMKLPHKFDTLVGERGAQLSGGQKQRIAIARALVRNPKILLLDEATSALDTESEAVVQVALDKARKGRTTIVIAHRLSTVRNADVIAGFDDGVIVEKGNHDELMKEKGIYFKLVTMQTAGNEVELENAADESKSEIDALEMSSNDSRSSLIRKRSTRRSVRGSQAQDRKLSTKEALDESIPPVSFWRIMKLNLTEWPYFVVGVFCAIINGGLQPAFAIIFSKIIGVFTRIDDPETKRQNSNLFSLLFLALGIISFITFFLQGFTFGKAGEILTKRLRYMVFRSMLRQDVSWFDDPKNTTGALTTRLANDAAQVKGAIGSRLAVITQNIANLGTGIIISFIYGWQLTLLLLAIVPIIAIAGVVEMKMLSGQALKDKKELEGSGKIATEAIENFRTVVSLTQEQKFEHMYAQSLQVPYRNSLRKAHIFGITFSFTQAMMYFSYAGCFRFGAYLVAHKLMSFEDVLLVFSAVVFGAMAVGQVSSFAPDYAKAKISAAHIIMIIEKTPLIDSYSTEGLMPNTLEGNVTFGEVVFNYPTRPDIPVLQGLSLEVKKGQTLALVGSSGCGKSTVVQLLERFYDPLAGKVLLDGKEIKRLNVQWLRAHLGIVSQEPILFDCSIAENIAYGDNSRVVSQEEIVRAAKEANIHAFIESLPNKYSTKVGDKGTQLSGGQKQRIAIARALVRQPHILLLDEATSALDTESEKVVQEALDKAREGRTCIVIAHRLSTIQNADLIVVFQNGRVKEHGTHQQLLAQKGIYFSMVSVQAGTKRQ
Chain of D(2) dopamine receptor (P14416 whole entry): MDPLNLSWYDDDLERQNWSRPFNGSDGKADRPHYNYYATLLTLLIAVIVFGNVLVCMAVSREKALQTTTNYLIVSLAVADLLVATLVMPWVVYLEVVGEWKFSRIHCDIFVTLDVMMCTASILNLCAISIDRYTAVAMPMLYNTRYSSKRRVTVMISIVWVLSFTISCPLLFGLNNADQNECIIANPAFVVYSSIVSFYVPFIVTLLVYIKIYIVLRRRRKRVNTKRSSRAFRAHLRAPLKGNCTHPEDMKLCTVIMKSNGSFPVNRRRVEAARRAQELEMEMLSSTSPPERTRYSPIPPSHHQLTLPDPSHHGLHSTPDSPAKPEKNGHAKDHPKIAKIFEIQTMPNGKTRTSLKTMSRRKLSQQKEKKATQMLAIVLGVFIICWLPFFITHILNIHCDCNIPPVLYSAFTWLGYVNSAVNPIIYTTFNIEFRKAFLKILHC

SMILES: Fc1cccc(F)c1[C@H]1CC[C@@H](N2CCN(C3CCCCC3)CC2)CC1
- EC50 [1]: 40600 nM
- EC50 [2]: 12100 nM
- Ki [3]: 14.1 nM
- Ki [4]: 0.63 nM
- EC50 [5]: 7300 nM

SMILES: CCCN(CCC)CCc1ccc(OC)c(OCCc2ccccc2)c1
- Ki [6]: 170 nM

SMILES: O=c1sc2cc(CCCF)ccc2n1CCN1CCCCCC1
- Ki [7]: 0.0025 nM

SMILES: COc1cc2c(cc1OC)CN(CCCCNC(=O)c1cc(C)ccc1OCC[18F])CC2
- Ki [8]: 2 nM
- Ki [7]: 23.9 nM

SMILES: O=C(OCCN1CCOCC1)C1(c2ccccc2)CCCCC1
- Ki [6]: 32100 nM

SMILES: OCC[C@H]1CN(CC2CCCCC2)CCN1Cc1ccc(-c2ccccc2)cc1
- IC50 [9]: 8830 nM
- Ki [10]: 73 nM
- IC50 [11]: 10500 nM
- Ki [12]: 43 nM
- IC50 [13]: 9250 nM

SMILES: OCC[C@@H]1CN(CC2CCCCC2)CCN1Cc1ccc(-c2ccccc2)cc1
- IC50 [9]: > 20000 nM
- Ki [10]: 38 nM
- IC50 [11]: 6570 nM
- Ki [12]: 39 nM
- IC50 [13]: 3460 nM

SMILES: COc1ccc(C)cc1NC(=O)OC1CC2CCCC(C1)N2CCCCCCCCCCN (stereo not given)
- Ki [14]: 7.7 nM

SMILES: CCCN1CCC=C(c2cc(-c3ccc(C)cc3)no2)C1
- Ki [6]: 1380 nM
- Ki [15]: 0.08 nM

SMILES: c1ccc(CC2CCN(CC3CSC4(CCCCC4)S3)CC2)cc1 (stereo not given)
- Ki [16]: 19.5 nM
- IC50 [17]: 52000 nM
- IC50 [18]: 22000 nM
- Ki [19]: 537 nM

SMILES: O=C(CCCN1CCCN(c2ccc(Cl)cc2)CC1)c1ccc(F)cc1
- Activity [20]: 95%
- Activity [21]: 49%

SMILES: CCN(C/C=C\c1ccc(C2CCCCC2)c(Cl)c1)C1CCCCC1
- IC50 [14]: 45 nM
- Ki [22]: 2 nM

SMILES: O=C(NC1CCN(Cc2ccccc2)CC1)c1ccc(I)cc1
- Ki [6]: 25.2 nM
- Ki [23]: 1.7 nM

SMILES: CCCCCCCNCCC1CCN(C)C(c2ccccc2)C1 (stereo not given)
- Ki [3]: 285 nM
- Ki [4]: 16 nM

SMILES: CCN(CC)CCNC(=O)c1ccc(OC)c([123I])c1
- Ki [8]: 206 nM
- Ki [7]: 11.8 nM

SMILES: CN1C(=O)CCc2cc(CNC(C)(C)[C@@H](O)c3ccccc3)ccc21
- Ki [14]: 4 nM
- Ki [22]: > 1000 nM

SMILES: C1=C(c2c[nH]c3ncccc23)CCN(CCCc2ccccc2)C1
- Ki [22]: 29 nM

SMILES: CCCCCCNCC[C@H]1CCC[C@@H](c2ccccc2)O1
- Ki [3]: 36 nM
- Ki [4]: 2.4 nM

SMILES: C/C(=C\CN1CCN(Cc2ccc(C(F)(F)F)cc2)CC1)c1ccccc1
- IC50 [24]: 19000 nM
- IC50 [25]: 22300 nM
- IC50 ([26]; Homo sapiens, U-87 MG, 24 h): 28300 nM
- IC50 ([26]; u-87mg atcc): 22300 nM

SMILES: C/C(=C\CN1CCN(C(=O)C2CCCC2)CC1)c1ccccc1
- IC50 [24]: 11200 nM
- IC50 [25]: 39000 nM
- IC50 ([26]; Homo sapiens, U-87 MG, 24 h): 39000 nM

SMILES: COc1cccc(OC)c1[C@H]1CC[C@@H](N2CCN(C3CCCCC3)CC2)CC1
- Activity [27]: 90%
- EC50 [1]: 31300 nM
- EC50 [2]: 32500 nM
- Activity [28]: 50%
- Activity [29]: 70%
- Ki [3]: 7.92 nM
- Ki [4]: 0.26 nM
- EC50 [5]: 800 nM

SMILES: CCCCCCNCC[C@@H]1CCC[C@H](c2ccccc2)O1
- Ki [3]: 57 nM
- Ki [4]: 0.95 nM

SMILES: CCN1CCN(Cc2cccc3ccccc23)[C@@H](CCO)C1
- Ki [30]: 1.9 nM
- IC50 [9]: 9770 nM
- Ki [10]: 26 nM
- IC50 [11]: 3650 nM
- IC50 [31]: 1290 nM
- Ki [32]: 29 nM
- Ki [12]: 16 nM
- IC50 [13]: 9120 nM

SMILES: C/C(=C\CN1CCN(Cc2ccccc2)CC1)c1ccc2ccccc2c1
- Activity [33]: 65%
- Activity [34]: 34%

SMILES: c1ccc(CN2CCN(CC3CSC4(CCCCC4)S3)CC2)cc1 (stereo not given)
- Ki [16]: 75.9 nM
- IC50 [17]: 50000 nM
- IC50 [18]: 38000 nM
- Ki [19]: 6.16 nM

SMILES: COc1ccc(/C(C)=C/CN2CCN(Cc3ccc(C(F)(F)F)cc3)CC2)cc1
- IC50 [24]: 20600 nM
- IC50 [25]: 24100 nM
- IC50 ([26]; Homo sapiens, U-87 MG, 24 h): 27600 nM
- IC50 ([26]; u-87mg atcc): 24100 nM

SMILES: CCN1CCN(Cc2cccc3ccccc23)[C@H](CCO)C1
- Ki [30]: 0.9 nM
- IC50 [9]: 9050 nM
- Ki [10]: 14 nM
- IC50 [11]: 4790 nM
- Activity [35]: 32%
- IC50 [31]: 8530 nM
- Ki [32]: 7.5 nM
- Ki [12]: 37 nM
- IC50 [13]: 5020 nM

SMILES: OC(CCCN1CCC(O)(c2ccc(Cl)cc2)CC1)c1ccc(F)cc1 (racemic) [HYDROXYHALOPERIDOL]
- Activity [36]: 98%

SMILES: CCCN1CCC(c2cccc(S(C)(=O)=O)c2)CC1 [PRIDOPIDINE]
- Ki [37]: 10000 nM
- Ki [7]: 17 nM

SMILES: O=C(CN1CCC(CN2Cc3ccccc3C2=O)CC1)c1ccc(F)cc1 [ROLUPERIDONE]
- Ki [38]: 7.53 nM
